Test results from patent publication US20140256754A1, “QUINAZOLINES AS B-GLUCURONIDASE NOVEL INHIBITORS” (priority 2013, published 2014).
Like-named read-outs stand apart in the source and are kept apart here.

Columns and labels:
PC-3 cells = assay: MTT cytotoxicity assay against PC-3 cells; settings: read-out: IC50 (μM) ± SEM, 72 h
Experimental: For this purpose, PC-3 cells (Prostrate Cancer)/3T3(Mouse fibroblast) were cultured in Dulbecco's Modified Eagle's Medium, supplemented with 5% of foetal bovine serum (FBS), 100 IU/mL of penicillin and 100 μg/mL of streptomycin in 25 cm^3 flask and kept in 5% CO2 incubator at 37° C. Exponentially growing cells were harvested, counted with haemocytometer and diluted with a particular medium.
Subsequently, 100 μL of DMSO was added to each well. The extent of MTT reduction to formazan within cells was calculated by measuring the absorbance at 570 nm, using a microplate ELISA reader (Spectra Max plus, Molecular Devices, Calif., USA).

β-glucuronidase = biological target: T1, β-glucuronidase (UniProt A3KMY8); assay: β-Glucuronidase inhibition, spectrophotometric p-nitrophenyl-β-D-glucuronide assay; format: biochemical; settings: for % Inhibition: test concentration not given
T1 sequence (A3KMY8 1-652): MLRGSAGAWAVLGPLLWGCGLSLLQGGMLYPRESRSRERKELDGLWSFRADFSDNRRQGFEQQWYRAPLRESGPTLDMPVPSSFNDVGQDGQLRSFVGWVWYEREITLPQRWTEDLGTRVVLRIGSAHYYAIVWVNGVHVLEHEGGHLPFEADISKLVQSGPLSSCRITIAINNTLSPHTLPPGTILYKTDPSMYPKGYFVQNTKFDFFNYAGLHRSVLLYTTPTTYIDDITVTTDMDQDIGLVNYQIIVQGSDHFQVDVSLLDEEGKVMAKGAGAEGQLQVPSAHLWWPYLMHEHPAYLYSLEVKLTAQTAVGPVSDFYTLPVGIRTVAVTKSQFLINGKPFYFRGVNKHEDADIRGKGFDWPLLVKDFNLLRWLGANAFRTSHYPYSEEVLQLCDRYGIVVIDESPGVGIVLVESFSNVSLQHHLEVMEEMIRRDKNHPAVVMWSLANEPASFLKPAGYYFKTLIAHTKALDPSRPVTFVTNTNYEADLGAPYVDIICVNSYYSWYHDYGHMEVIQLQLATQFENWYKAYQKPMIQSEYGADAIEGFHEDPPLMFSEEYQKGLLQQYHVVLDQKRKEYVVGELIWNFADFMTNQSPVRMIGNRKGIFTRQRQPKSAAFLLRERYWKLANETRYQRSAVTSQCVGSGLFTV
Experimental: The total reaction volume was 250 μL. […] The reaction mixture contained 185 μL of 0.1 M acetate buffer, 5 μL of test compound solution, 10 μL of (1U) enzyme solution was incubated at 37° C. for 30 min. […] All assays were run in triplicate. IC50 Values were calculated by using EZ-Fit software (Perrella Scientific Inc., Amherst, Mass., USA). These values are the mean of three independent assays.

[1] = read-out: IC50 (μM) ± SEM, mean of three independent assays

SMILES | IC50 (PC-3 cells) [µM] | IC50 (β-glucuronidase; [1]) [µM] | % Inhibition (β-glucuronidase) [%] | IC50 (β-glucuronidase; unit inferred) [µM]
O=c1[nH]c(-c2ccccc2O)nc2ccccc12 [Compound 2, 2-(2-Hydroxyphenyl)quinazolin-4(3H)-one] | > 30 | 10 ± 0.54 | 99.1 | –
O=c1[nH]c(-c2ccc(O)cc2)nc2ccccc12 [Compound 3, 2-(4-Hydroxyphenyl)quinazolin-4(3H)-one] | > 30 | 22.2 ± 0.31 | 99.6 | –
O=c1[nH]c(-c2cccc(O)c2)nc2ccccc12 [Compound 4, 2-(3-Hydroxyphenyl)quinazolin-4(3H )-one] | > 30 | – | 78.5 | –
O=c1[nH]c(-c2ccc(O)c(O)c2)nc2ccccc12 [Compound 5, 2-(3,4-Dihydroxyphenyl)quinazolin-4(3H)-one] | > 30 | – | – | –
O=c1[nH]c(-c2cc(O)ccc2O)nc2ccccc12 [Compound 6, 2-(2,5-Dihydroxyphenyl)quinazolin-4(3H)-one] | > 30 | – | – | –
COc1ccc(O)c(-c2nc3ccccc3c(=O)[nH]2)c1 [Compound 7, 2-[2-Hydroxy-5-(methyloxy)phenyl]quinazolin-4(3H)-one] | > 30 | – | – | –
COc1ccc(-c2nc3ccccc3c(=O)[nH]2)cc1O [Compound 8, 2-[3-Hydroxy-4-(methyloxy)phenyl]quinazolin-4(3H)-one] | > 30 | 2.8 ± 0.042 | 84.0 | –
COc1ccc(-c2nc3ccccc3c(=O)[nH]2)cc1 [Compound 10, 2-[4-(Methyloxy)phenyl]quinazolin-4(3H)-one] | > 30 | 1.1 ± 0.05 | 99.7 | –
COc1ccc(-c2nc3ccccc3c(=O)[nH]2)cc1OC [Compound 11, 2-[3,4-Bis(methyloxy)phenyl]quinazolin-4(3H)-one] | > 30 | – | – | –
COc1cc(-c2nc3ccccc3c(=O)[nH]2)cc(OC)c1OC [Compound 12, 2-[3,4,5-Tris(methyloxy)phenyl]quinazolin-4(3H)-one] | > 30 | – | 97.6 | 120 ± 2.54
CCOc1ccc(-c2nc3ccccc3c(=O)[nH]2)cc1 [Compound 13, 2-[4-(Ethyloxy)phenyl]quinazolin-4(3H)-one] | > 30 | – | – | –
CCOc1ccccc1-c1nc2ccccc2c(=O)[nH]1 [Compound 14, 2-[2-(Ethyloxy)phenyl]quinazolin-4(3H)-one] | > 30 | – | – | –
CCOc1cc(-c2nc3ccccc3c(=O)[nH]2)ccc1O [Compound 15, 2-[3-(Ethyloxy)-4-hydroxyphenyl]quinazolin-4(3H)-one] | > 30 | – | – | –
O=c1[nH]c(-c2ccccc2Cl)nc2ccccc12 [Compound 16, 2-(2-Chlorophenyl)quinazolin-4(3H)-one] | > 30 | – | – | –
O=c1[nH]c(-c2ccc(Cl)cc2Cl)nc2ccccc12 [Compound 17, 2-(2,4-Dichlorophenyl)quinazolin-4(3H)-one] | > 30 | – | – | –
O=c1[nH]c(-c2c(Cl)cccc2Cl)nc2ccccc12 [Compound 18, 2-(2,6-Dichlorophenyl)quinazolin-4(3H)-one] | > 30 | – | – | –
O=c1[nH]c(-c2ccc(Cl)cc2)nc2ccccc12 [Compound 19, 2-(4-Chlorophenyl)quinazolin-4(3H)-one] | > 30 | – | – | –
O=c1[nH]c(-c2ccccc2[N+](=O)[O-])nc2ccccc12 [Compound 20, 2-(2-Nitrophenyl)quinazolin-4(3H)-one] | > 30 | – | – | –
O=c1[nH]c(-c2cccc([N+](=O)[O-])c2)nc2ccccc12 [Compound 21, 2-(3-Nitrophenyl)quinazolin-4(3H)-one] | > 30 | 50.4 ± 1.4 | 95.1 | –
O=c1[nH]c(-c2ccc([N+](=O)[O-])cc2)nc2ccccc12 [Compound 22, 2-(4-Nitrophenyl)quinazolin-4(3H)-one] | > 30 | 20.1 ± 0.92 | 96.4 | –
CN(C)c1ccc(-c2nc3ccccc3c(=O)[nH]2)cc1 [Compound 23, 2-[4-(Dimethylamino)phenyl]quinazolin-4(3H)-one] | > 30 | 5.5 ± 0.1 | 99.6 | –
Cc1ccc(-c2nc3ccccc3c(=O)[nH]2)cc1 [Compound 24, 2-(4-Methylphenyl)quinazolin-4(3H)-one] | > 30 | – | 96.3 | –
O=c1[nH]c(-c2c(O)cccc2Br)nc2ccccc12 [Compound 25, 2-(2-Bromo-6-hydroxyphenyl)quinazolin-4(3H)-one] | > 30 | – | – | –
